Experimental data from patent US20200009137A1, “TOPICAL FORMULATIONS AND USES THEREOF” (SUN PHARMA GLOBAL FZE, priority 2015, published 2020).

How the values were obtained:
[1] = Ocular tissue distribution of RX-10045 / RX-10008 (LC-MS/MS); assay type: in vivo, rabbit; conditions: topical ocular RX-10045 formulations 4×/day for 5 days, rabbits
Experimental: A study was conducted in rabbits to test the tolerance and ocular tissue distribution of two nanomicellar formulations of compound 1001 (RX10045) against matching placebos (Table 7a and 7b) and balanced saline solution (BSS). Healthy New Zealand female white rabbits (2-3 kg) were used for this study. One drop (approximately 35 μL) of study drug was applied o.d. 4×/day at two hour intervals for 5 days. One drop of BSS was applied to the contralateral eye.
Selected ocular fluids/tissues (aqueous humor, vitreous humor, conjunctiva, cornea, iris-ciliary body, lens, retina/choroid, and sclera) collected from two rabbits each in the RX-10045 (0.15% in HCO-60, 0.1% in HCO-40) treatment groups, and from one rabbit in each of the matching placebo groups, were assayed for compound 1001 and another resolvin by liquid chromatography-tandem mass spectrometry (LC-MS/MS). Warfarin-d5 and 5-HDA were used as internal standards for the analysis of RX-10045 and its active metabolite, RX-10008, respectively, in aqueous humor and vitreous humor. For the other ocular tissues (solid tissues), warfarin-d5 and phenyl acetic acid-d5 (PAA-d5) were used as the internal standards for compound 1001 and RX-10008, respectively. The analytical range for the solid tissues were 0.125-100 ng. The results of the solid tissue analyses were converted to ng/g by correcting for the amount of tissue analyzed.

[2] = 1H NMR qualitative studies for free drug; assay type: physicochemical; conditions: D2O; drug peaks evident in CDCl3
Experimental: To determine the absence of free drug in the outer aqueous environment, qualitative studies were conducted. Qualitative proton nuclear magnetic resonance (NMR) studies were conducted with Varian 400 MHz NMR. Deuterated chloroform and water as solvent systems were used to resuspend the formulation and NMR studies were performed.

For `C#CC[C@@H](O)/C=C/C=C/C#C[C@@H](O)CCCC(=O)OC(C)C` [compound 1001], the “Compound 1001 in the majority of ocular tissues” value [1] was “either not detected or was below the quantitation limit of the assay” and the “Free drug when MNF is resuspended in aqueous solution (qualitative proton NMR)” value [2] was “not freely available”.
